The values that follow come from patent publication US11827627B2, “N-(hydroxyalkyl (hetero)aryl) tetrahydrofuran carboxamides as modulators of sodium channels” (VERTEX PHARMACEUTICALS INCORPORATED, priority 2021, dated 2023).

As a reminder, the IC50 is the concentration that inhibits the measured activity by half. A higher IC50 goes with weaker potency.

For this test, the target named is human NaV 1.8 (Homo sapiens, UniProt Q9Y5Y9). Put plainly: E-VIPR assay detecting and measuring NaV inhibition properties. In kind it is cell-based. As to conditions: HEK cells expressing a truncated form of human NaV 1.8; electrical stimulation, membrane potential FRET dyes. An excerpt: E-VIPR Assay Detecting and Measuring NaV Inhibition Properties
Sequence of human NaV 1.8 (Q9Y5Y9 126-1722 limits assumed): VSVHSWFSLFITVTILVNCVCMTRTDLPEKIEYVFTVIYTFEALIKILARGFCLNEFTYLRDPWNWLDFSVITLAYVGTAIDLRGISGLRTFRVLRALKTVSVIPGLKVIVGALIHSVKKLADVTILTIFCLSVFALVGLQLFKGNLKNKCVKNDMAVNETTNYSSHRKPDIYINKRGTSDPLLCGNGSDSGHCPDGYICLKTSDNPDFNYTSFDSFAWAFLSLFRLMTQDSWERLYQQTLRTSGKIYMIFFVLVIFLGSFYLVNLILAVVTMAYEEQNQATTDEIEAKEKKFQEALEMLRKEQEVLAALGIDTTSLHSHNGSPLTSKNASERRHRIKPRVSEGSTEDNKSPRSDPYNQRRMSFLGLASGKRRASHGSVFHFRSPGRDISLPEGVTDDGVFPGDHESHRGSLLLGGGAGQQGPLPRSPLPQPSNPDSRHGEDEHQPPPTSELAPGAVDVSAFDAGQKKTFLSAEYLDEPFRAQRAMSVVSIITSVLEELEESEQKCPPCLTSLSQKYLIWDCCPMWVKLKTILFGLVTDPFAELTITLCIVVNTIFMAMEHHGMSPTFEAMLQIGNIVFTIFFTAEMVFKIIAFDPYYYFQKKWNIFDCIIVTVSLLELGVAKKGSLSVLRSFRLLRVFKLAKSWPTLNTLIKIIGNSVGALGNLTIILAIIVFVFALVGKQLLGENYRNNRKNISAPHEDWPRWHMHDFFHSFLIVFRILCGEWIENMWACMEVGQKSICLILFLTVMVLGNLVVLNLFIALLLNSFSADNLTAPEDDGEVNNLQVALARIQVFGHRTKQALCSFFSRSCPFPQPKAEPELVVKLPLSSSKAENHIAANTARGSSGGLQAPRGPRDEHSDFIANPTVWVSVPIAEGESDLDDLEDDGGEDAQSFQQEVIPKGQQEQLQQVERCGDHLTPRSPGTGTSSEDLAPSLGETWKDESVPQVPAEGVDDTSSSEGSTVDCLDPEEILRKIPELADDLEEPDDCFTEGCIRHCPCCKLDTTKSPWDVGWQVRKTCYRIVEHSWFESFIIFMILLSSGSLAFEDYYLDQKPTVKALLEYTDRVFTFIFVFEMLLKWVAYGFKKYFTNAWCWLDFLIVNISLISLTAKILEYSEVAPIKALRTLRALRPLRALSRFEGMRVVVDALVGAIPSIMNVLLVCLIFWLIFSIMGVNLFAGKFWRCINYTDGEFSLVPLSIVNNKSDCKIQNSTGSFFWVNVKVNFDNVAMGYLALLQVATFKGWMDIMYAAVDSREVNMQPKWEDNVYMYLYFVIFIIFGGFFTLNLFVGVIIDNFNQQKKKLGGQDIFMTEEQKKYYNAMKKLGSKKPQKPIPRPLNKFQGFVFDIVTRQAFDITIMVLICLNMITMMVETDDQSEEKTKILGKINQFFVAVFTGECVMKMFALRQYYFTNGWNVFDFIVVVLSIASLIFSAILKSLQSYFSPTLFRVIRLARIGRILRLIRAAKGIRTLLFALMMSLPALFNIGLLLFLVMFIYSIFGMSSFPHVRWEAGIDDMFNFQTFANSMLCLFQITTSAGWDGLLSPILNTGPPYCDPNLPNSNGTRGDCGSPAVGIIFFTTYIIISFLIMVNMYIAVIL
Sodium ion channels are voltage-dependent proteins that can be activated by inducing membrane voltage changes by applying electric fields. The electrical stimulation instrument and methods of use, referred to as E-VIPR, are described in International Publication No. WO 2002/008748 A3 and C.-J. Huang et al. Characterization of voltage-gated sodium channel blockers by electrical stimulation and fluorescence detection of membrane potential, 24 Nature Biotech. 439-46 (2006), both of which are incorporated by reference in their entirety. The instrument comprises a microtiter plate handler, an optical system for exciting the coumarin dye while simultaneously recording the coumarin and oxonol emissions, a waveform generator, a current- or voltage-controlled amplifier, and parallel electrode pairs that are inserted into assay plate wells. Under integrated computer control, this instrument passes user-programmed electrical stimulus protocols to cells within the wells of the microtiter plate.
16-20 hours prior to running the assay on E-VIPR, HEK cells expressing a truncated form of human NaV 1.8 with full channel activity were seeded into microtiter 384-well plates, pre-coated with matrigel, at a density of 25,000 cells per well. 2.5-5% KIR2.1 Bacmam virus was added to the final cell suspension before seeding into cell plates. HEK cells were grown in Dulbecco's Modified Eagle's Medium (DMEM) supplemented with 10% FBS (Fetal Bovine Serum, qualified; Sigma #F4135), 1% NEAA (Non-Essential Amino Acids, Gibco #11140), 1% HEPES (Gibco #15630), 1% Pen-Strep (Penicillin-Streptomycin; Gibco #15140) and 5 μg/ml Blasticidin (Gibco #R210-01). Cells were expanded in vented cap cell culture flasks, with 90-95% humidity and 5% CO2.
Reagents and Stock Solutions:
100 mg/mL Pluronic F-127 (Sigma #P2443), in dry DMSO
Compound Plates: Corning 384-well Polypropylene Round Bottom #3656
Cell Plates: 384-well tissue culture treated plates (Greiner #781091-2B)
2.5-5% KIR 2.1 Bacmam virus (produced in-house), prepared as described in Section 3.3 of J. A. Fornwald et al., Gene Expression in Mammalian Cells Using BacMam, a Modified Baculovirus System, 1350 Methods in Molecular Biology 95-116 (2016), the entire contents of which are incorporated by reference. The concentration used can be dependent on viral titer of each batch.
5 mM DiSBAC6(3), a voltage sensitive oxonol acceptor (CAS number 169211-44-3; 5-[3-(1,3-dihexylhexahydro-4,6-dioxo-2-thioxo-5-pyrimidinyl)-2-propen-1-ylidene]-1,3-dihexyldihydro-2-thioxo-4,6(1H,5H)-pyrimidinedione), in dry DMSO. The preparation of DiSBAC6(3) is analogous to that of DiSBAC4(3) as described in Voltage Sensing by Fluorescence Resonance Energy Transfer in Single Cells, Gonzalez, J. E. and Tsien, R. Y. (1995) Biophys. J. 69, 1272-1280.
5 mM CC2-DMPE, a commercially available membrane-bound coumarin phospholipid FRET donor (ThermoFisher Scientific catalog number K1017, CAS number 393782-57-5; tetradecanoic acid, 1,1′-[(1R)-1-[8-(6-chloro-7-hydroxy-2-oxo-2H-1-benzopyran-3-yl)-3-hydroxy-3-oxido-8-oxo-2,4-dioxa-7-aza-3-phosphaoct-1-yl]-1,2-ethanediyl]ester) was prepared in dry DMSO. See also, Improved indicators of cell membrane potential that use fluorescence resonance energy transfer, Gonzalez, J. E. and Tsien, R. Y. (1997) Chem. Biol. 4, 269-277.
Voltage Assay Background Suppression Compound (VABSC-1) is prepared in H2O (89-363 mM, range used to maintain solubility)
Human Serum (HS, Millipore #S1P1-01KL, or Sigma SLBR5469V and SLBR5470V as a 50%/50% mixture, for 25% assay final concentration)
Bath 1 Buffer: • Sodium Chloride 160 mM (9.35 g/L), Potassium Chloride, 4.5 mM (0.335 g/L), Glucose 10 mM (1.8 g/L), Magnesium Chloride (Anhydrous) 1 mM (0.095 g/L), Calcium Chloride 2 mM (0.222 g/L), HEPES 10 mM (2.38 g/L) in water. […]
Compound `COc1c([C@@H]2C[C@](C)(C(F)(F)F)O[C@H]2C(=O)Nc2ccc([C@@H](O)CO)nc2)ccc(F)c1F` (relative stereo) [Compound 24, rel-(2R,3S,5R)-3-(3,4-difluoro-2-methoxyphenyl)-N-(6-((R*)-1,2-dihydroxyethyl)pyridin-3-yl)-5-methyl-5-(trifluoromethyl)tetrahydrofuran-2-carboxamide] returned an IC50 of 100 to 1000 nM.
Compound `COc1c([C@H]2C[C@@](C)(C(F)(F)F)O[C@@H]2C(=O)Nc2ccc([C@@H](O)CO)nc2)ccc(F)c1F` (relative stereo) [Compound 25, rel-(2S,3R,5S)-3-(3,4-difluoro-2-methoxyphenyl)-N-(6-((R*)-1,2-dihydroxyethyl)pyridin-3-yl)-5-methyl-5-(trifluoromethyl)tetrahydrofuran-2-carboxamide] displayed an IC50 not below 1000 nM.
Next, `COc1c([C@H]2[C@H](C(=O)Nc3ccc(C(C)O)nc3)O[C@@](C)(C(F)(F)F)[C@H]2C)ccc(F)c1C(F)F` (relative stereo) [Compound 56, rel-(2R,3S,4S,5R)-3-(3-(difluoromethyl)-4-fluoro-2-methoxyphenyl)-N-(6-(1-hydroxyethyl)pyridin-3-yl)-4,5-dimethyl-5-(trifluoromethyl)tetrahydrofuran-2-carboxamide]: 10 to 100 nM; `COc1c([C@H]2[C@H](C(=O)Nc3ccc([C@H](O)CO)[n+]([O-])c3)O[C@@](C)(C(F)(F)F)[C@H]2C)ccc(F)c1C` (relative stereo) [Compound 59, rel-2-((S*)-1,2-dihydroxyethyl)-5-((2R,3S,4S,5R)-3-(4-fluoro-2-methoxy-3-methylphenyl)-4,5-dimethyl-5-(trifluoromethyl)tetrahydrofuran-2-carboxamido)pyridine 1-oxide]: 10 to 100 nM.
Next, `COc1c([C@H]2[C@H](C(=O)Nc3ccc([C@@H](O)CO)nc3)O[C@@](C)(C(F)(F)F)[C@H]2C)ccc(F)c1F` (single isomer, unassigned) [Compound 1]: less than 10 nM; `COc1c([C@H]2[C@H](C(=O)Nc3ccc([C@H](O)CO)nc3)O[C@@](C)(C(F)(F)F)[C@H]2C)ccc(F)c1F` (single isomer, unassigned) [Compound 2]: less than 10 nM; `COc1c([C@H]2[C@H](C(=O)Nc3ccc([C@@H](O)[C@@H](C)O)nc3)O[C@@](C)(C(F)(F)F)[C@H]2C)ccc(F)c1F` (single isomer, unassigned) [Compound 3, rel-(2R*,3S*,4S*,5R*)-3-(3,4-difluoro-2-methoxyphenyl)-N-(6-((1R,2R)-1,2-dihydroxypropyl)pyridin-3-yl)-4,5-dimethyl-5-(trifluoromethyl)tetrahydrofuran-2-carboxamide]: less than 10 nM.
For `COc1c([C@H]2[C@H](C(=O)Nc3ccc([C@H](O)[C@H](C)O)nc3)O[C@@](C)(C(F)(F)F)[C@H]2C)ccc(F)c1F` (single isomer, unassigned) [Compound 4, rel-(2R*,3S*,4S*,5R*)-3-(3,4-difluoro-2-methoxyphenyl)-N-(6-((1S,2S)-1,2-dihydroxypropyl)pyridin-3-yl)-4,5-dimethyl-5-(trifluoromethyl)tetrahydrofuran-2-carboxamide] the value was less than 10 nM.
`COc1c(C2C(C(=O)Nc3cnc(C(O)CO)nc3)OC(C)(C(F)(F)F)C2C)ccc(F)c1F` (single isomer, unassigned) [Compound 11] had a concentration for half-maximal inhibition (IC50) of less than 10 nM.
The compound `COc1c(C2C(C(=O)Nc3cnc(C(O)CO)nc3)OC(C)(C(F)(F)F)C2C)ccc(F)c1F` (single isomer, unassigned) [Compound 12] registered an IC50 of 10 to 100 nM.
For `COc1c([C@H]2[C@H](C(=O)Nc3ccc(C(O)CF)nc3)O[C@@](C)(C(F)(F)F)[C@H]2C)ccc(F)c1F` (single isomer, unassigned) [Compound 16, rel-(2R*,3S*,4S*,5R*)-3-(3,4-difluoro-2-methoxyphenyl)-N-(6-(2-fluoro-1-hydroxyethyl)pyridin-3-yl)-4,5-dimethyl-5-(trifluoromethyl)tetrahydrofuran-2-carboxamide] the value was less than 10 nM.
In the case of `COc1c(C2C(C(=O)Nc3ccc(C(O)CF)nc3)OC(C)(C(F)(F)F)C2C)ccc(F)c1F` (single isomer, unassigned) [Compound 17, rel-(2R*,3S*,4S*,5R*)-3-(3,4-difluoro-2-methoxyphenyl)-N-(6-(2-fluoro-l-hydroxyethyl)pyridin-3-yl)-4,5-dimethyl-5-(trifluoromethyl)tetrahydrofuran-2-carboxamide], the IC50 fell in the range of 10 to 100 nM.
As to `COCC(O)c1ccc(NC(=O)[C@@H]2O[C@@](C)(C(F)(F)F)[C@@H](C)[C@H]2c2ccc(F)c(F)c2OC)cn1` (single isomer, unassigned) [Compound 20, rel-(2R*,3S*,4S*,5R*)-3-(3,4-difluoro-2-methoxyphenyl)-N-(6-(1-hydroxy-2-methoxyethyl)pyridin-3-yl)-4,5-dimethyl-5-(trifluoromethyl)tetrahydrofuran-2-carboxamide], the IC50 lay within 10 to 100 nM.
`COCCC(O)c1ccc(NC(=O)[C@@H]2O[C@@](C)(C(F)(F)F)[C@@H](C)[C@H]2c2ccc(F)c(F)c2OC)cn1` (single isomer, unassigned) [Compound 22, rel-(2R*,3S*,4S*,5R*)-3-(3,4-difluoro-2-methoxyphenyl)-N-(6-(1-hydroxy-3-methoxypropyl)pyridin-3-yl)-4,5-dimethyl-5-(trifluoromethyl)tetrahydrofuran-2-carboxamide]: the IC50 was 10 to 100 nM.
For the compound `COCCC(O)c1ccc(NC(=O)[C@@H]2O[C@@](C)(C(F)(F)F)[C@@H](C)[C@H]2c2ccc(F)c(F)c2OC)cn1` (single isomer, unassigned) [Compound 23, rel-(2R*,3S*,4S*,5R*)-3-(3,4-difluoro-2-methoxyphenyl)-N-(6-(1-hydroxy-3-methoxypropyl)pyridin-3-yl)-4,5-dimethyl-5-(trifluoromethyl)tetrahydrofuran-2-carboxamide], the IC50 was in the range of 100 to 1000 nM.
For `COc1c([C@@H]2C[C@](C)(C(F)(F)F)O[C@H]2C(=O)Nc2ccc([C@H](O)CO)nc2)ccc(F)c1F` (single isomer, unassigned) [Compound 26, rel-(2R,3S,5R)-3-(3,4-difluoro-2-methoxyphenyl)-N-(6-((S*)-1,2-dihydroxyethyl)pyridin-3-yl)-5-methyl-5-(trifluoromethyl)tetrahydrofuran-2-carboxamide] the value was 100 to 1000 nM.
The compound `COc1c([C@H]2C[C@@](C)(C(F)(F)F)O[C@@H]2C(=O)Nc2ccc([C@H](O)CO)nc2)ccc(F)c1F` (single isomer, unassigned) [Compound 27, rel-(2S,3R,5S)-3-(3,4-difluoro-2-methoxyphenyl)-N-(6-((S*)-1,2-dihydroxyethyl)pyridin-3-yl)-5-methyl-5-(trifluoromethyl)tetrahydrofuran-2-carboxamide] gave an IC50 not below 1000 nM.
For `COc1c([C@H]2C[C@@](C)(C(F)(F)F)O[C@@H]2C(=O)Nc2cnc(C(O)CO)nc2)ccc(F)c1F` (single isomer, unassigned) [Compound 28] the value was not below 1000 nM.
Next, `COc1c([C@@H]2C[C@](C)(C(F)(F)F)O[C@H]2C(=O)Nc2cnc(C(O)CO)nc2)ccc(F)c1F` (single isomer, unassigned) [Compound 29]: 100 to 1000 nM.
